Data published in US20030186869A1, “Polymer compositions comprising antifibrotic agents, and methods of treatment, pharmaceutical compositions, and methods of preparation therefor” (priority 1990, published 2003).

Tests used:
[1] = tested on: RFL-6 cells; experiment: IC50 experiment, cytotoxicity / growth inhibition of RFL-6 rat fibroblast cells; type: cell-based
Description: In this test two different synthesis batches of cis-hydroxyproline (CHOP) linked to PEG were tested, along with free CHOP. […] The differences between the two batches of CHOP-PEG are not significant.

[2] = tested on: Sprague-Dawley rats housed under hypoxic conditions (10% O2); experiment: Hypoxic rat model of pulmonary hypertension, CHOP-PEG; type: in vivo
Description: The anti-pulmonary hypertensive activity of the polymer compositions was tested in the hypoxic rat model (as described in detail above). […] PH is manifested histologically by vascular remodeling (collagen accumulation and fibroblastic hypertrophy), increased right ventricular work-load, thickening of the pulmonary artery, and hypertrophy of the right ventricular cardiac wall. […] Drug treatment can take place during the acute induction phase (days 0-7) or following the establishment of experimental PH (day 7 or later). Intravenous (i.v.), subcutaneous (s.c.), intra-tracheal instillation, and osmotic minipump delivery have been tested. Experiments are scored by obtaining the mean RVP measurement. Results are expressed as either RVP in mm Hg, or preferably as the reduction in the RVP by the formula: […] On day 7 the RVP was measured and compared to animals maintained in normoxic conditions (10.4 mm Hg) and to untreated animals kept in hypoxic conditions (19.3 mm Hg).

[3] = tested on: Sprague-Dawley rats housed under hypoxic conditions (10% O2); experiment: as above; type: in vivo; conditions: 10 mg in 7-day minipump

poly(PEG-Lys-cHyp amide) [CHOP-PEG]
IC50 ([1]; PEG construct, mean ± SD (n), read-out: IC50, AA-Lys-PEG): 5.6 ± 1.5 mM
inhibition of rat fibroblast growth, polymeric constructs versus free amino acid ([1]; two synthesis batches (1 and 2), FIG. 15): to a similar extent
reduction of RVP at minimum maximally effective dose ([2]; 0.8 mg total dose per animal, acute PH): > 70%
reduction of RVP ([2]; 10 mg in 7-day minipump, day 7): 74%
reduction of RVP ([2]; 7-day miniosmotic pump, both drug treated groups (1 or 4 mg, FIG. 18)): 76%
reduction of RVP ([2]; 7-day minipump, 1.0 mg): more than 50%
reduction of RVP ([2]; intratracheal instillation 90 mg on days 0 and 2): 51%
RVP ([2]; intratracheal instillation 90 mg on days 0 and 2, reduced from 20): 15 mm Hg
effect on RVP in rats under normoxic conditions ([2]; normoxic, intratracheal instillation, similar treatment): no effect
reduction of RVP ([2]; single i.v. dose 0.8 mg on day 0, RVP on day 7): ~50%
reduction of RVP ([2]; subcutaneous route, 7 day hypoxic rat model): minimal reduction of RVP
minimum dose that reduces RVP maximally in acute PH ([2]; total dose per animal): 0.8 mg
reduction of RVP ([3]; day 10): 56%
reduction of RVP ([3]; day 14): 45%
